According to patent US12686673B2 (Blueprint Medicines Corporation, priority 2020, dated 2026):

Tests used:
Assay type in all cases: cell-based
[1] = molecular target: HER2 (A775_G776insYVMA) expressing Ba/F3 stable cell line (Homo sapiens, UniProt P04626, DUP772-775, cells depend on it); assay: Cellular proliferation (Alamar Blue) assay, HER2 A775_G776insYVMA Ba/F3; settings: 72 hr, read-out: YVMA IC50
In short: (§1)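 Ba/F3 cells stably expressing the mutant were seeded at 15,000 per well in RPMI with 10% FBS and left 16-18 hours at 37 degree Celsius. Compounds were then added in 3-fold serial dilutions (final 10-0.0005 μM) for 72 hr, and viability was read with Alamar Blue after 3 hours.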

[2] = test system: A431 cells; assay: Cellular proliferation (Alamar Blue) assay, A431; settings: Homo sapiens, A-431; A431 cells, 72 hr, Alamar Blue; read-out: A431 IC50
[3] = molecular target: EGFR(D770_N771insSVD) expressing Ba/F3 stable cell line (Homo sapiens, UniProt P00533, DUP768-770, cells depend on it); assay: Cellular proliferation (Alamar Blue) assay, EGFR D770_N771insSVD Ba/F3; settings: 72 hr, read-out: D770 IC50
Chain of EGFR(D770_N771insSVD) expressing Ba/F3 stable cell line (P00533 with tags, fused parts or gaps DUP768-770): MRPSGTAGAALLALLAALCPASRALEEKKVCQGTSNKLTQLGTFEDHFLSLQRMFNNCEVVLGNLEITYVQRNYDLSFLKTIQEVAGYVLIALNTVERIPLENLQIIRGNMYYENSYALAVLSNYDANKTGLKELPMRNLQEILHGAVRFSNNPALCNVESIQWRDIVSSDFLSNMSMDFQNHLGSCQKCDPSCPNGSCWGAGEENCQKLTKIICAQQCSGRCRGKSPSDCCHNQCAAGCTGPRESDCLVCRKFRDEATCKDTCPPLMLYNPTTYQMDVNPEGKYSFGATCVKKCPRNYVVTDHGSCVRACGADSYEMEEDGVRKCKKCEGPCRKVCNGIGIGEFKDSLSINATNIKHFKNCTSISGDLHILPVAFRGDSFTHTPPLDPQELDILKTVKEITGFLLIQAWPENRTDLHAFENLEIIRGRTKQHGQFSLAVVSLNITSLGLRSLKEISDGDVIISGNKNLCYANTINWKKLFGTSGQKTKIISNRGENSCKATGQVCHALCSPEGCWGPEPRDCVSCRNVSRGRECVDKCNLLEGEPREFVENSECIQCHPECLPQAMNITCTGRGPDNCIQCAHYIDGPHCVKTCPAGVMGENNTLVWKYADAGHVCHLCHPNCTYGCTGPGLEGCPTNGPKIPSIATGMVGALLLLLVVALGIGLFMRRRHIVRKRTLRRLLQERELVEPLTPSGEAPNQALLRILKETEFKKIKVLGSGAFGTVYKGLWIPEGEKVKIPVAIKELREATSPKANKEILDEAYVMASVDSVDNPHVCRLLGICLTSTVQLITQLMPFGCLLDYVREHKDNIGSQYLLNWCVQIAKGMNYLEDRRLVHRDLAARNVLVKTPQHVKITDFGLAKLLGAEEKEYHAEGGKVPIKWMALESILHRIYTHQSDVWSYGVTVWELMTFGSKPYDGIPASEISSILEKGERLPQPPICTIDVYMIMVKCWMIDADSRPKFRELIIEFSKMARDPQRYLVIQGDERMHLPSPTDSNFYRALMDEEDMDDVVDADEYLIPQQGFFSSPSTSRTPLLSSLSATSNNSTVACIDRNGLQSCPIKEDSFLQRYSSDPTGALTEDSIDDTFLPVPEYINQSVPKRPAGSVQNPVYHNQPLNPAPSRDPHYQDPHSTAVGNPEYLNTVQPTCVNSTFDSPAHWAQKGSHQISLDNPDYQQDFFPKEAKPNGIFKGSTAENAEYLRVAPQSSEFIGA
In short: as §1

[4] = molecular target: EGFR (A767_dupASV) expressing Ba/F3 stable cell line (Homo sapiens, UniProt P00533, DUP767-769, cells depend on it); assay: Cellular proliferation (Alamar Blue) assay, EGFR A767_dupASV Ba/F3; settings: 72 hr, read-out: A767 IC50
Chain of EGFR (A767_dupASV) expressing Ba/F3 stable cell line (P00533 with tags, fused parts or gaps DUP767-769): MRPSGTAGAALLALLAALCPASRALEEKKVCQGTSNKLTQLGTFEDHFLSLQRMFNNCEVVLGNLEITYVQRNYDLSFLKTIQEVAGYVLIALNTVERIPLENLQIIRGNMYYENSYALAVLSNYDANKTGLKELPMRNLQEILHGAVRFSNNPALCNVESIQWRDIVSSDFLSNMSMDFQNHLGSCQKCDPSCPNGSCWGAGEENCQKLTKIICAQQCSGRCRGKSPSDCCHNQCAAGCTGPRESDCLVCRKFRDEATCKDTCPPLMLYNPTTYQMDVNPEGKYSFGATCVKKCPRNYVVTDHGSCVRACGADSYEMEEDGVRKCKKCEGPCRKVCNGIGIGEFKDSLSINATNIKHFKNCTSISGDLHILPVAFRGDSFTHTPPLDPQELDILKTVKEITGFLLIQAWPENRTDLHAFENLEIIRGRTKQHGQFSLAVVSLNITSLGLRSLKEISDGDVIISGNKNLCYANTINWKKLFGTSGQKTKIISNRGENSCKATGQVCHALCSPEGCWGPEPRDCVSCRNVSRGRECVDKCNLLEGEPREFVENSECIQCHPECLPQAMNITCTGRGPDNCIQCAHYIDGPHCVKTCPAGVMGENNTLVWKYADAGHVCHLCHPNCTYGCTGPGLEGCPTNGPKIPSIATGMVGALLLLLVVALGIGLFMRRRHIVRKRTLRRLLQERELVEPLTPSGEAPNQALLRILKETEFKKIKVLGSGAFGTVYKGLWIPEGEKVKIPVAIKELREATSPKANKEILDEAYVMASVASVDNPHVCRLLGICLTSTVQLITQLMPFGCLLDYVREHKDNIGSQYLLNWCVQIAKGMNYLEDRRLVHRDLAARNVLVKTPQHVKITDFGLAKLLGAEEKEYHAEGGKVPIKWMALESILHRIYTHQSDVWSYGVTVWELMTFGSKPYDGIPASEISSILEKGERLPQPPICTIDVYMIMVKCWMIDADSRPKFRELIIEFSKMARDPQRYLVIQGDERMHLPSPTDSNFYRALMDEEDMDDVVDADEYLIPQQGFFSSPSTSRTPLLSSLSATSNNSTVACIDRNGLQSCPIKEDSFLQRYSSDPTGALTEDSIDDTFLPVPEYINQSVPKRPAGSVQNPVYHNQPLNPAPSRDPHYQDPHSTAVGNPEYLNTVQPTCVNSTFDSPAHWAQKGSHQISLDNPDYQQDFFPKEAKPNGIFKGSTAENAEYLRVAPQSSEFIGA
In short: as §1

Chain of HER2 (A775_G776insYVMA) expressing Ba/F3 stable cell line (P04626 with tags, fused parts or gaps DUP772-775): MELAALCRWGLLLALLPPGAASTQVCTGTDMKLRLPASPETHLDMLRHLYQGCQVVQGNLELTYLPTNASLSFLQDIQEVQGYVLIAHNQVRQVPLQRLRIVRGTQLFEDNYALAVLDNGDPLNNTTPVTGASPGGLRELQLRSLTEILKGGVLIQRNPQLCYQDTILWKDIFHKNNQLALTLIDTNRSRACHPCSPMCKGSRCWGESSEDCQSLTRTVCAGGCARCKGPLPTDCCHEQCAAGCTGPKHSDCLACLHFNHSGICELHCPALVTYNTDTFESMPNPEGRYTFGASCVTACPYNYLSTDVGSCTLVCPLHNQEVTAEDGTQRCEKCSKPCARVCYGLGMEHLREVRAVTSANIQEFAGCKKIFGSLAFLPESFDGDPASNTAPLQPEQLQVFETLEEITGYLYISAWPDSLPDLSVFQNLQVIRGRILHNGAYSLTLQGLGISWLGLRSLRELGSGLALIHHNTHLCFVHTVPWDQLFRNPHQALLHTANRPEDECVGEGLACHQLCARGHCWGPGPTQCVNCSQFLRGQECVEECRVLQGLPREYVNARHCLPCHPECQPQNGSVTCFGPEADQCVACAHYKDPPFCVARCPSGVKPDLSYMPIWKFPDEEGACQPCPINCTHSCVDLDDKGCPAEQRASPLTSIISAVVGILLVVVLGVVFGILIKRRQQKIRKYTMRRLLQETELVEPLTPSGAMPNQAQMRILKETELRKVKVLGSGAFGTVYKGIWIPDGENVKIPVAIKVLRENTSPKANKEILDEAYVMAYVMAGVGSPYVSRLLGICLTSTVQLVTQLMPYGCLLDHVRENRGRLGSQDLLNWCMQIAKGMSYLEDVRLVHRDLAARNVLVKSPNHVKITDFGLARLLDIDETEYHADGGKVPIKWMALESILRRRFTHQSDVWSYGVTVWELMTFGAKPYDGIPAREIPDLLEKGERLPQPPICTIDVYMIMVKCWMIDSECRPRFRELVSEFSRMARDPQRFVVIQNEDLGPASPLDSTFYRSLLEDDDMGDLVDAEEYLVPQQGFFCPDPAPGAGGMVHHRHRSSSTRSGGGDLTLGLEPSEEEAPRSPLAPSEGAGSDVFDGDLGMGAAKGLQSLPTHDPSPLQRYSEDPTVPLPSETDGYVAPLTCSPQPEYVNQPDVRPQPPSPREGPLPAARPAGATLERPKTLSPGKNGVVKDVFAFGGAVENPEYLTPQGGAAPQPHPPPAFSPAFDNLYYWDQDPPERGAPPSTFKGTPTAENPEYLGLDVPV

C=CC(=O)Nc1ccc(F)c(Nc2nc(Nc3cn(CCN(C)C)nc3Cl)ncc2-c2ccc(Br)cc2)c1 [Compound 208, N-(3-((5-(4-bromophenyl)-2-((3-chloro-1-(2-(dimethylamino)ethyl)-1H-pyrazol-4-yl)amino)pyrimidin-4-yl)amino)-4-fluorophenyl)acrylamide]
GI50 [1]: 402 nM
IC50 [2]: 46 nM
GI50 [3]: 76 nM
GI50 [4]: 121 nM

C=CC(=O)Nc1ccc(F)c(Nc2cc(Nc3cnn(C)c3)ncc2-c2ccc(C(F)(F)F)cc2)c1 [Compound 210, N-[4-fluoro-3-({2-[(1-methyl-1H-pyrazol-4-yl)amino]-5-[4-(trifluoromethyl)phenyl]pyridin-4-yl}amino)phenyl]prop-2-enamide]
GI50 [1]: 3580 nM
IC50 [2]: 4480 nM
GI50 [3]: 2840 nM
GI50 [4]: 2900 nM

C=CC(=O)Nc1ccc(F)c(N(C)c2nc(Nc3cnn(C)c3)ncc2-c2ccc(C(F)(F)F)cc2)c1 [Compound 228, N-(4-fluoro-3-(methyl(2-((1-methyl-1H-pyrazol-4-yl)amino)-5-(4-(trifluoromethyl)phenyl)pyrimidin-4-yl)amino)phenyl)acrylamide]
GI50 [1]: 1250 nM
IC50 [2]: 4120 nM
GI50 [3]: 952 nM
GI50 [4]: 891 nM

C=CC(=O)Nc1cc(Nc2nc(Nc3cnn(C)c3)ncc2-c2ccc(C(F)(F)F)cc2)ccc1F [Compound 238, N-(2-fluoro-5-((2-((1-methyl-1H-pyrazol-4-yl)amino)-5-(4-(trifluoromethyl)phenyl)pyrimidin-4-yl)amino)phenyl)acrylamide]
GI50 [1]: 3010 nM
IC50 [2]: 617 nM
GI50 [3]: 312 nM
GI50 [4]: 90 nM

C=CC(=O)Nc1cc(F)cc(Nc2nc(Nc3cnn(C)c3)ncc2-c2ccc(C(F)(F)F)cc2)c1 [Compound 239, N-(3-fluoro-5-((2-((1-methyl-1H-pyrazol-4-yl)amino)-5-(4-(trifluoromethyl)phenyl)pyrimidin-4-yl)amino)phenyl)acrylamide]
GI50 [1]: 251 nM
IC50 [2]: 229 nM
GI50 [3]: 36 nM
GI50 [4]: 91 nM

C=CC(=O)Nc1ccc(F)c(Nc2nc(Nc3cnn(CC(C)(C)O)c3)ncc2-c2ccc(C(F)(F)F)cc2)c1 [Compound 240, N-(4-fluoro-3-((2-((1-(2-hydroxy-2-methylpropyl)-1H-pyrazol-4-yl)amino)-5-(4-(trifluoromethyl)phenyl)pyrimidin-4-yl)amino)phenyl)acrylamide]
GI50 [1]: 2010 nM
IC50 [2]: 441 nM
GI50 [3]: 395 nM
GI50 [4]: 861 nM

C=CC(=O)Nc1ccc(F)c(Nc2nc(Nc3cn(CCO)nc3Cl)ncc2-c2ccc(C(F)(F)F)cc2)c1 [Compound 241, N-(3-((2-((3-chloro-1-(2-hydroxyethyl)-1H-pyrazol-4-yl)amino)-5-(4-(trifluoromethyl)phenyl)pyrimidin-4-yl)amino)-4-fluorophenyl)acrylamide]
GI50 [1]: 343 nM
IC50 [2]: 105 nM
GI50 [3]: 105 nM
GI50 [4]: 146 nM

C=CC(=O)Nc1ccc(F)c(Nc2nc(Nc3cnn(C)c3)ncc2C#CC2CC2)c1 [Compound 244, N-(3-{[5-(2-cyclopropylethynyl)-2-[(1-methyl-1H-pyrazol-4-yl)amino]pyrimidin-4-yl]amino}-4-fluorophenyl)prop-2-enamide]
GI50 [1]: 2250 nM
IC50 [2]: 1810 nM
GI50 [3]: 1890 nM
GI50 [4]: 2180 nM

C=CC(=O)Nc1ccc(F)c(Nc2nc(Nc3cn(C)nc3Cl)ncc2-c2ccc(C(F)(F)F)cc2)c1 [Compound 245, N-[3-({2-[(3-chloro-1-methyl-1H-pyrazol-4-yl)amino]-5-[4-(trifluoromethyl)phenyl]pyrimidin-4-yl}amino)-4-fluorophenyl]prop-2-enamide]
GI50 [1]: 202 nM
IC50 [2]: 63 nM
GI50 [3]: 91 nM
GI50 [4]: 115 nM

C=CC(=O)Nc1ccc(F)c(Nc2nc(Nc3cnn(C(C)(C)C#N)c3)ncc2-c2ccc(C(F)(F)F)cc2)c1 [Compound 246, N-(3-((2-((1-(2-cyanopropan-2-yl)-1H-pyrazol-4-yl)amino)-5-(4-(trifluoromethyl)phenyl)pyrimidin-4-yl)amino)-4-fluorophenyl)acrylamide]
GI50 [1]: 2070 nM
IC50 [2]: 368 nM
GI50 [3]: 299 nM
GI50 [4]: 303 nM

[2H]C([2H])=CC(=O)Nc1ccc(F)c(Nc2nc(Nc3cn(C)nc3Cl)ncc2-c2ccc(C(F)(F)F)cc2)c1 [Compound 249, N-(3-((2-((3-chloro-1-methyl-1H-pyrazol-4-yl)amino)-5-(4-(trifluoromethyl)phenyl)pyrimidin-4-yl)amino)-4-fluorophenyl)acrylamide-3,3-d2]
GI50 [1]: 1050 nM
IC50 [2]: 123 nM
GI50 [3]: 101 nM
GI50 [4]: 261 nM

[2H]C([2H])=CC(=O)Nc1ccc(F)c(Nc2nc(Nc3cnn(C)c3)ncc2-c2ccc(Br)cc2)c1 [Compound 250, N-(3-((5-(4-bromophenyl)-2-((1-methyl-1H-pyrazol-4-yl)amino)pyrimidin-4-yl)amino)-4-fluorophenyl)acrylamide-3,3-d2]
GI50 [1]: 204 nM
IC50 [2]: 65 nM
GI50 [3]: 34 nM
GI50 [4]: 47 nM

C#CC(=O)Nc1ccc(F)c(Nc2nc(Nc3cnn(C)c3)ncc2-c2ccc(C(F)(F)F)cc2)c1 [Compound 254, N-[4-fluoro-3-({2-[(1-methyl-1H-pyrazol-4-yl)amino]-5-[4-(trifluoromethyl)phenyl]pyrimidin-4-yl}amino)phenyl] prop-2-ynamide]
GI50 [1]: 8670 nM
IC50 [2]: 1000 nM
GI50 [3]: 8460 nM
GI50 [4]: 9470 nM

C=CC(=O)Nc1ccc(F)c(Nc2nc(Nc3cnn(C)c3)ncc2Br)c1 [Compound 256, N-(3-((5-bromo-2-((1-methyl-1H-pyrazol-4-yl)amino)pyrimidin-4-yl)amino)-4-fluorophenyl)acrylamide]
GI50 [1]: 755 nM
IC50 [2]: 1020 nM
GI50 [3]: 923 nM
GI50 [4]: 411 nM

C=CC(=O)Nc1ccc(F)c(Nc2nc(Nc3cnn(C)c3)ncc2-c2ccc3ncnn3c2)c1 [Compound 279, N-(3-((5-([1,2,4]triazolo[1,5-a]pyridin-6-yl)-2-((1-methyl-1H-pyrazol-4-yl)amino)pyrimidin-4-yl)amino)-4-fluorophenyl)acrylamide]
GI50 [1]: 471 nM
IC50 [2]: 93 nM
GI50 [3]: 149 nM
GI50 [4]: 328 nM

C=CC(=O)Nc1cccc(Nc2nc(Nc3cnn(C)c3)ncc2-c2ccc(CC(F)(F)F)cc2)c1 [Compound 293, N-(3-((2-((1-methyl-1H-pyrazol-4-yl)amino)-5-(4-(2,2,2-trifluoroethyl)phenyl)pyrimidin-4-yl)amino)phenyl)acrylamide]
GI50 [1]: 110 nM
IC50 [2]: 4 nM
GI50 [3]: 21 nM
GI50 [4]: 28 nM

C=CC(=O)Nc1ccc(F)c(Nc2nc(Nc3cnn(C)c3)ncc2-c2ccc(C3(C(F)(F)F)CC3)cc2)c1 [Compound 294, N-(4-fluoro-3-((2-((1-methyl-1H-pyrazol-4-yl)amino)-5-(4-(1-(trifluoromethyl)cyclopropyl)phenyl)pyrimidin-4-yl)amino)phenyl)acrylamide]
GI50 [1]: 803 nM
IC50 [2]: 45 nM
GI50 [3]: 100 nM
GI50 [4]: 80 nM

C=CC(=O)Nc1cc(F)cc(Nc2nc(Nc3cnn(C)c3)ncc2-c2ccc(CC(F)(F)F)cc2)c1 [Compound 295, N-(3-fluoro-5-((2-((1-methyl-1H-pyrazol-4-yl)amino)-5-(4-(2,2,2-trifluoroethyl)phenyl)pyrimidin-4-yl)amino)phenyl)acrylamide]
GI50 [1]: 210 nM
IC50 [2]: 6 nM
GI50 [3]: 34 nM
GI50 [4]: 38 nM

C=CC(=O)Nc1ccc(F)c(Nc2nc(Nc3cnn(C)c3)ncc2-c2ccc(C(F)(F)C(F)(F)F)cc2)c1 [Compound 296, N-(4-fluoro-3-((2-((1-methyl-1H-pyrazol-4-yl)amino)-5-(4-(perfluoroethyl)phenyl)pyrimidin-4-yl)amino)phenyl)acrylamide]
GI50 [1]: 971 nM
IC50 [2]: 32 nM
GI50 [3]: 84 nM
GI50 [4]: 106 nM

C=CC(=O)Nc1ccc(F)c(Nc2nc(Nc3cnn(C)c3)ncc2-c2csc(Cl)c2)c1 [Compound 298, N-(3-((5-(5-chlorothiophen-3-yl)-2-((1-methyl-1H-pyrazol-4-yl)amino)pyrimidin-4-yl)amino)-4-fluorophenyl)acrylamide]
GI50 [1]: 402 nM
IC50 [2]: 120 nM
GI50 [3]: 99 nM
GI50 [4]: 128 nM

C=CC(=O)Nc1ccc(F)c(Nc2nc(Nc3cnn(C)c3)ncc2-c2ccc3ccoc3c2)c1 [Compound 299, N-(3-((5-(benzofuran-6-yl)-2-((1-methyl-1H-pyrazol-4-yl)amino)pyrimidin-4-yl)amino)-4-fluorophenyl)acrylamide]
GI50 [1]: 339 nM
IC50 [2]: 173 nM
GI50 [3]: 99 nM
GI50 [4]: 257 nM

C=CC(=O)Nc1ccc(F)c(Nc2nc(Nc3cnn(C)c3)ncc2-c2ccc(Oc3cccc(F)c3)cc2)c1 [Compound 300, N-(4-fluoro-3-((5-(4-(3-fluorophenoxy)phenyl)-2-((1-methyl-1H-pyrazol-4-yl)amino)pyrimidin-4-yl)amino)phenyl)acrylamide]
GI50 [1]: 9740 nM
IC50 [2]: 229 nM
GI50 [3]: 1160 nM
GI50 [4]: 289 nM

CN(C)C/C=C/C(=O)Nc1ccc(F)c(Nc2nc(Nc3cnn(C)c3)ncc2-c2ccc(CC(F)(F)F)cc2)c1 [Compound 301, (E)-4-(dimethylamino)-N-(4-fluoro-3-((2-((1-methyl-1H-pyrazol-4-yl)amino)-5-(4-(2,2,2-trifluoroethyl)phenyl)pyrimidin-4-yl)amino)phenyl)but-2-enamide]
GI50 [1]: 187 nM
IC50 [2]: 16 nM
GI50 [3]: 193 nM
GI50 [4]: 68 nM
